“Also recorded” adds a separate entry of the source.
Experiments:
[1] = system: FoxP3+ human T cells (Treg); assay: FACS of FoxP3+ cells within CD4 T cell subset from spleen and BM of GvHD mice; type: in vivo; conditions: one dose of 100 μg/kg echinomycin vs vehicle
From the text: (§1) FIG. 4. HIF-1α accumulates in a high proportion of human T cells derived from spleen and BM of the recipients of human BMC: Impact of echinomycin. Panel A. Representative FACS plots showing the accumulation of HIF-1α in T cells from the spleen and BM of GvHD mice. Spleen and BM cells were isolated from the spleens and BM of GvHD mice, stained with anti-human CD45, CD4, CD8, and then intracellular stained with anti-human HIF-1α. Panel B. Representative FACS plots showing the accumulation of HIF-1α in all human cells from spleens of GvHD mice. Spleen cells were isolated from the spleens of GvHD mice, stained with anti-human CD45, CD4, CD8, and then intracellular stained with anti-human HIF-1α. FACS analysis was performed to determine the percentage of HIF-1α positive cells in CD45^+CD4^+CD8-, CD45^+CD4-D8^+ and CD45^+CD4-D8-subpopulations. Panel C. Representative FACS plots showing the percentage of HIF-1α positive T cells in spleen of GvHD mice after echinomycin treatment. […]
(§2) Spleens were gently grinded with frosted objective slides and bone marrow was dissociated with syringes to obtain single-cell suspensions and passed through a nylon cell strainer, washed three times with RPMI-1640, labeled with antibodies and analyzed for the presence of different human cell populations. […]

[2] = system: HIF-1α / leukemia stem cells; conditions: in vivo; cited from earlier work
HIF-1α [3] = assay: Western blot of human HIF-1α in spleen cells from GvHD mice after echinomycin; type: in vivo; conditions: echinomycin-treated GvHD mice compared to vehicle controls
From the text: as §1
To test the significance of HIF-1α accumulation, GvHD recipient mice were treated with echinomycin, a selective inhibitor of HIF-1α. […] Further, spleen cells from GvHD mice were isolated and human HIF-1α protein levels from echinomycin-treated mice and vehicle controls were measured by western blot analysis. […]

HIF-1α [4] = assay: Intracellular FACS staining of HIF-1α in human T cells from spleen of GvHD mice after echinomycin; type: in vivo
From the text: as §1, §2

humanized GvHD mice = assay: Treatment of humanized GvHD mice (newborn NSG pups transplanted with human BM cells) with echinomycin; type: in vivo, mouse
Experimental: FIG. 5. Sustained treatment of echinomycin protects mice against GvHD and eliminates expanded human leukocytes and inflammation. Panel A. Dosing regimen of echinomycin treatment for humanized GvHD mice. The day that mice were transplanted with human BM cells is defined as day 0. Each arrow represents one echinomycin treatment. The dose for each treatment is 10 μg/kg via intraperitoneal injection. Panel B. Longitudinal analysis of clinical representation of an echinomycin-treated mice. Panel C. Representative FACS plots showing the percentage of human CD45^+ cells in PBL of GvHD mice before and after echinomycin treatment. Data is one representative file from 3 mice and representative of three independent experiments. […] Data are representative of three independent experiments.
FIG. 6. Echinomycin protects mice against lethal GvHD. Panel A. Newborn NSG pups were transplanted with human 5×10^5 BM cells. The mice were treated with the dosing regimen of echinomycin listed in FIG. 5, Panel A. Panel B. Newborn NSG pups were transplanted with human 3×10^5 BM cells. The mice were treated with the dosing regimen of echinomycin listed in FIG. 5, Panel A, except treatment is started at day 17 rather than day 27. […] Data are representative of three independent experiments.
Human bone marrow mononuclear cells were isolated from healthy human adult bone marrow using density gradient separation were purchased from Stemcell Technologies (Vancouver, Canada) and Lonza (Walkersville, Md., USA). Human CD3^+ cells from BM were sorted from human BM cells using BD Influx (BD Biosciences). Cells were thawed, counted and re-suspended in 1×PBS in a concentration of 0.1-0.5×10^6 per 30 μl. 0.1-0.5×10^6 cells were transplanted via intrahepatic injection into irradiated (1.30 Gy) newborn NSG pups. Human CD45^+ cells in PBMC of recipients were detected by FACS analysis at day 17 to 20 after transplantation.
Peripheral blood was collected by sub-mandibular bleeding at different times after transplantation of human BM cells. Fluorochrome-labeled antibodies were directly added into whole blood. After 30 min of staining, the unbound antibodies were washed away and the red blood cells were lysed with BD FACS™. The stained cells were analyzed with BD FACS Canto II flow cytometry.
Immunohistochemistry was performed on tissue sections from skin, liver, lung, spleen, and kidney of humanized NSG mice. Sections were fixed with 4% paraformaldehyde and dehydrated with graded alcohol. After treatment with heated citrate buffer for antigen retrieval, sections were blocked for endogenous peroxidase activity. Sections were then incubated in 10% goat serum followed by primary antibodies at 4° C. overnight. Fixed samples were stained with the following antibodies, anti-human CD45 (MEM-28) and CD3 (ab828, Abcam PLC, Cambridge, Mass.), for detection of infiltrated human cells. After incubation for 30 minutes with secondary antibody, the specimens were visualized by DAB treatment. Sections were lightly counterstained with hematoxylin to enable visualization of nuclei.
Newborn NSG pups received 0.3-0.5×10^6 human BM cells intrahepatically. Beginning on day 17 or 27, the recipients received 5 intraperitoneal injections of echinomycin, daily at 10 μg/kg. Following 2 days of rest, another 5 intraperitoneal injections of echinomycin were administered at the same dose, once per day. The second round of treatment was performed following 5 days of rest from the prior round of treatment, using the same dose once every other day for 10 total treatments.
To better understand the importance of HIF-1α in the therapy of GvHD, the effect of HIF-1α inhibition was examined. Newborn pups were transplanted with 0.5×10^6 human BM cells via intra-hepatic injection. Twenty-seven days after transplantation, mice were treated with 10 μg/kg of echinomycin for a total of 20 treatments. […]

Structure (SMILES): CS[C@H]1SC[C@H]2C(=O)N(C)[C@@H](C(C)C)C(=O)OC[C@@H](NC(=O)c3cnc4ccccc4n3)C(=O)N[C@@H](C)C(=O)N(C)[C@@H]1C(=O)N(C)[C@@H](C(C)C)C(=O)OC[C@@H](NC(=O)c1cnc3ccccc3n1)C(=O)N[C@@H](C)C(=O)N2C [echinomycin]
- proportion of Tregs (FoxP3+ cells within CD4 T cell subset) [1]: no apparent difference
- proportion of Tregs (FoxP3+ cells within CD4 T cell subset) ([1]; listed as Echinomycin): does not expand human Treg
- adverse reactions towards hematopoietic stem cells [2]: without adverse reactions
- efficacy in experimental leukemia and lymphoma [2]: effective in treating experimental leukemia and lymphoma
- HIF-1α protein levels in spleen cells (western blot) (HIF-1α [3]): significantly decreased
- HIF-1α protein in HIF-1α+ T cells of spleen (FACS) (HIF-1α [4]; single dose of 100 μg/kg echinomycin, overnight): lost HIF-1α protein overnight
- T cell frequencies (HIF-1α [4]; single dose of echinomycin): largely unaffected
- median survival (humanized GvHD mice; 0.3×10^6 human BM cells, treatment started day 17, 10 μg/kg i.p.): 119 days
- survival during the treatment period (humanized GvHD mice; 0.5×10^6 BM cells, 10 μg/kg, 20 treatments from day 27, all vehicle treated mice died): survived
- reduction of number of human leukocytes in the peripheral blood (humanized GvHD mice; 0.5×10^6 human BM cells, 10 μg/kg i.p. from day 27, over 5 weeks): more than 10 fold
- median survival (humanized GvHD mice; 0.5×10^6 human BM cells, treatment started day 27, 10 μg/kg i.p.): 99 days
- life span (Kaplan-Meier survival curve) compared with vehicle (humanized GvHD mice; 3×10^5 or 5×10^5 BM cells, regimen of FIG. 5 Panel A): significantly prolonged life span
- mice protected against lethal GvHD (humanized GvHD mice; continuous treatment of echinomycin): ~100%
- clinical symptoms (skin, hair) (humanized GvHD mice; one treated mouse, after two weeks of treatments, 10 μg/kg from day 27): regained smooth skin with visible regrowth of hair
- human CD3+ T cells in organs (IHC) (humanized GvHD mice; skin, intestine, liver and lung, 10 μg/kg i.p. from day 27, day 75): elimination of T cells from all major organs; also recorded: significant reduction of CD3^+ cells
- life span longer than that of mice treated starting at Day 27 (humanized GvHD mice; treatment started day 17 vs day 27): 20 days

— patent US10898522B2, “Compositions and methods for treating graft versus host disease” (Children's Research Institute, Children's National Medical …, priority 2015, dated 2021)
